Reference: ChEMBL document CHEMBL1201862, “PubChem BioAssay data set” (2004)
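Protocol summary: plate cells (96-well), add compound at 5 concentrations, incubate 48 h, interpolate endpoints linearly. GI50 = concentration required for 50% inhibition of growth.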 Active and inactive are the calls of the source. No stated cut-off is given here; in the data, active = GI50 up to about 1.1 µM and inactive = higher.

Legend:
Test in all cases: NCI anticancer screen, dose series, 48 h
[1] = system: RPMI-8226
[2] = system: IGROV-1
[3] = system: OVCAR-5
[4] = system: LOX IMVI
[5] = system: XF498
[6] = system: RXF 393
[7] = system: UACC-62
[8] = system: CAKI-1
[9] = system: M19-MEL
[10] = system: SF-295
[11] = system: Malme-3M
[12] = system: SK-OV-3
[13] = system: KM12
[14] = system: SNB-78
[15] = system: A549
[16] = system: DMS-114
[17] = system: NCI-H23
[18] = system: ACHN
[19] = system: SN12C
[20] = system: HCC 2998
[21] = system: SNB-19
[22] = system: HT-29
[23] = system: U-251
[24] = system: SW-620
[25] = system: HL-60
[26] = system: OVCAR-3
[27] = system: SR
[28] = system: SF-268
[29] = system: NCI-H522
[30] = system: HOP-62
[31] = system: SK-MEL-5
[32] = system: OVCAR-4
[33] = system: TK-10
[34] = system: DMS-273
[35] = system: SNB-75
[36] = system: HOP-18
[37] = system: LXFL 529
[38] = system: EKVX
[39] = system: SK-MEL-28
[40] = system: A498
[41] = system: SK-MEL-2
[42] = system: 786-0
[43] = system: HCT-15
[44] = system: OVCAR-8
[45] = system: HCT-116
[46] = system: COLO 205
[47] = system: NCI-H460
[48] = system: DLD-1
[49] = system: M14
[50] = system: KM-20L2
[51] = system: MOLT-4
[52] = system: HOP-92
[53] = system: K562
[54] = system: SF-539
[55] = system: CCRF-CEM
[56] = system: UO-31
[57] = system: UACC-257
[58] = system: NCI-H226

With `Cc1ccc2nc(N)[nH]c(=O)c2c1Sc1ccncc1` as the molecule, how does the GI50 [1] read?
Its GI50 is 23.3 µM (inactive).

What about the GI50 [2] of the same molecule?
Its GI50 is > 71.6 µM (inactive).

What about the GI50 [3] of the same molecule?
The GI50 was 91.2 µM (inactive).

What about the GI50 [4] of the same molecule?
The GI50 was 11.2 µM (inactive).

What about the GI50 [5] of the same molecule?
Its GI50 is 22.8 µM (inactive).

And the GI50 [6]?
The GI50 was 55.8 µM (inactive).

What about the GI50 [7] of the same molecule?
The GI50 was 7.4 µM (inactive).

What about the GI50 [8] of the same molecule?
Its GI50 is 31.6 µM (inactive).

What about the GI50 [9] of the same molecule?
Its GI50 is > 76 µM (inactive).

What about the GI50 [10] of the same molecule?
The GI50 was 8.07 µM (inactive).

And the GI50 [11]?
The GI50 was > 65.2 µM (inactive).

And the GI50 [12]?
The GI50 was > 30.6 µM (inactive).

And the GI50 [13]?
The GI50 was > 51.6 µM (inactive).

What about the GI50 [14] of the same molecule?
Its GI50 is > 100 µM (inactive).

What about the GI50 [15] of the same molecule?
Its GI50 is 6.73 µM (inactive).

What about the GI50 [16] of the same molecule?
Its GI50 is 12.6 µM (inactive).

And the GI50 [17]?
The GI50 was 60.3 µM (inactive).

And the GI50 [18]?
The GI50 was 7.35 µM (inactive).

What about the GI50 [19] of the same molecule?
The GI50 was 17.5 µM (inactive).

What about the GI50 [20] of the same molecule?
Its GI50 is 1.36 µM (inactive).

And the GI50 [21]?
Its GI50 is > 100 µM (inactive).

And the GI50 [22]?
The GI50 was > 100 µM (inactive).

And the GI50 [23]?
The GI50 was > 51.1 µM (inactive).

And the GI50 [24]?
The GI50 was > 100 µM (inactive).

What about the GI50 [25] of the same molecule?
Its GI50 is 10.9 µM (inactive).

And the GI50 [26]?
The GI50 was > 69.2 µM (inactive).

And the GI50 [27]?
The GI50 was 5.07 µM (inactive).

What about the GI50 [28] of the same molecule?
Its GI50 is 10.5 µM (inactive).

And the GI50 [29]?
Its GI50 is 17.8 µM (inactive).

And the GI50 [30]?
The GI50 was 5.11 µM (inactive).

What about the GI50 [31] of the same molecule?
Its GI50 is 21.2 µM (inactive).

And the GI50 [32]?
The GI50 was 78.2 µM (inactive).

And the GI50 [33]?
Its GI50 is > 100 µM (inactive).

And the GI50 [34]?
The GI50 was 37.2 µM (inactive).

And the GI50 [35]?
Its GI50 is > 78.9 µM (inactive).

What about the GI50 [36] of the same molecule?
Its GI50 is > 100 µM (inactive).

And the GI50 [37]?
Its GI50 is > 59.7 µM (inactive).

And the GI50 [38]?
Its GI50 is 49.8 µM (inactive).

And the GI50 [39]?
Its GI50 is > 92.3 µM (inactive).

What about the GI50 [40] of the same molecule?
Its GI50 is > 78.9 µM (inactive).

What about the GI50 [41] of the same molecule?
The GI50 was > 100 µM (inactive).

What about the GI50 [42] of the same molecule?
Its GI50 is 12.2 µM (inactive).

And the GI50 [43]?
Its GI50 is > 100 µM.

And the GI50 [44]?
Its GI50 is > 31.1 µM (inactive).

What about the GI50 [45] of the same molecule?
Its GI50 is 15.5 µM (inactive).

What about the GI50 [46] of the same molecule?
The GI50 was > 92.9 µM (inactive).

And the GI50 [47]?
Its GI50 is 5.28 µM (inactive).

And the GI50 [48]?
The GI50 was > 100 µM (inactive).

And the GI50 [49]?
The GI50 was 8.63 µM (inactive).

What about the GI50 [50] of the same molecule?
Its GI50 is 10 µM (inactive).

What about the GI50 [51] of the same molecule?
The GI50 was 6.28 µM (inactive).

What about the GI50 [52] of the same molecule?
Its GI50 is 25.9 µM (inactive).

What about the GI50 [53] of the same molecule?
The GI50 was 15.8 µM (inactive).

And the GI50 [54]?
Its GI50 is 4.78 µM (inactive).

What about the GI50 [55] of the same molecule?
Its GI50 is 5.05 µM (inactive).

And the GI50 [56]?
Its GI50 is 64.1 µM (inactive).

And the GI50 [57]?
Its GI50 is > 100 µM (inactive).

Which results are given for `CCCCCCCCCCCCCC(=O)CC(=O)c1c(O)cccc1O`?
GI50 [1]: 25.5 µM (inactive); GI50 [2]: 48 µM (inactive); GI50 [3]: 46.6 µM (inactive); GI50 [4]: 19.6 µM (inactive); GI50 [5]: 24.5 µM (inactive); GI50 [6]: > 100 µM (inactive); GI50 [7]: 47.3 µM (inactive); GI50 [8]: 34 µM (inactive); GI50 [9]: 30.5 µM (inactive); GI50 [10]: 42.4 µM (inactive); GI50 [11]: 28.8 µM (inactive); GI50 [12]: 38.6 µM (inactive); GI50 [13]: 41.1 µM (inactive); GI50 [14]: 32.3 µM (inactive); GI50 [15]: 51.1 µM (inactive); GI50 [16]: 21.5 µM (inactive); GI50 [17]: 23 µM (inactive); GI50 [18]: 28.2 µM (inactive); GI50 [19]: 33.6 µM (inactive); GI50 [20]: 38.2 µM (inactive); GI50 [21]: 36.4 µM (inactive); GI50 [22]: 27.2 µM (inactive); GI50 [23]: 35.6 µM (inactive); GI50 [24]: 23.6 µM (inactive); GI50 [25]: 20.8 µM (inactive); GI50 [26]: 18.9 µM (inactive); GI50 [28]: 61.8 µM (inactive); GI50 [29]: 22.7 µM (inactive); GI50 [30]: 34.4 µM (inactive); GI50 [31]: > 100 µM (inactive); GI50 [32]: 33.4 µM (inactive); GI50 [33]: 51.6 µM (inactive); GI50 [34]: 22.1 µM (inactive); GI50 [35]: 39.5 µM (inactive); GI50 [36]: 33.3 µM (inactive); GI50 [37]: 35.2 µM (inactive); GI50 [38]: 30.6 µM (inactive); GI50 [39]: > 100 µM (inactive); GI50 [58]: 28.4 µM (inactive); GI50 [40]: > 100 µM (inactive); GI50 [41]: 19.2 µM (inactive); GI50 [42]: 34.9 µM (inactive); GI50 [43]: 25.2 µM; GI50 [44]: 44.3 µM (inactive); GI50 [45]: 43.6 µM (inactive); GI50 [46]: 22.5 µM (inactive); GI50 [47]: 36.1 µM (inactive); GI50 [48]: 41.6 µM (inactive); GI50 [49]: 44.7 µM (inactive); GI50 [50]: 47.4 µM (inactive); GI50 [51]: 21.5 µM (inactive); GI50 [52]: 22.4 µM (inactive); GI50 [53]: 21 µM (inactive); GI50 [54]: 49.5 µM (inactive); GI50 [55]: 21.1 µM (inactive); GI50 [56]: 32.7 µM (inactive); GI50 [57]: 32.4 µM (inactive)
